The subject of one assay is DAPI. As to the kind of experiment: triacylglycerol accumulation inhibitor potency, dose response, cell-based, panel, Nile Red and DAPI fluorescence, H9c2 (AID 651630).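 Note: cells exposed to compound overnight before fixation and staining.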 The note with it: H9c2 cells, DAPI nuclear fluorescence (cytotoxicity counter-readout), oleic acid.
For the next assay, the system named is TAG. The assay is described as above. The note with it: H9c2 cells, Nile Red TAG fluorescence, oleic acid.

SMILES strings stand for the structures. The source made the active and inactive calls.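 Rule for the calls: active = lipid-stain IC50 at or below a set limit, with nuclear-stain toxicity IC50 at least five times higher; inactive = the rest.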

From PubChem BioAssay AID651630 (Sanford-Burnham Center for Chemical Genomics, 2012) come the findings set out here.

For the molecule `Nc1c(Cl)cc(-c2csc(N3CCCC3c3nc4cc(Cl)c(N5CCCCC5)cc4n3CCOCCO)n2)cc1Cl` (stereo not given), the IC50 cytotoxicity (DAPI nuclear signal decrease) was > 25 µM (inactive) with DAPI (mean of runs), greater than 25 µM in the assay with DAPI (run 1) and greater than 25 µM with DAPI (run 2). The figures for the IC50 in the assay on TAG (mean of runs), with TAG (run 1) and with TAG (run 2) were 11.4 µM, 11.6 µM and 11.1 µM, respectively.

Regarding `CCN1CCN(Cc2ccc(NC(=O)c3cc(NC(=O)c4cncc(-c5cccs5)c4)cc(OC)c3)cc2C(F)(F)F)CC1`, the IC50 cytotoxicity (DAPI nuclear signal decrease) with DAPI (mean of runs) is > 25 µM (inactive); in the assay with DAPI (run 1) it was greater than 25 µM; with DAPI (run 2) it was greater than 25 µM. For the same molecule, the half-inhibitory concentration (IC50) (as a rule, the concentration that gives 50% inhibition) is 10.5 µM with TAG (mean of runs), 12.4 µM in the assay with TAG (run 1) and 8.55 µM with TAG (run 2).

As for `CC1(c2ccccc2)O[C@@H]2C[C@H]3[C@@H]4CCC5=CC(=O)C=C[C@]5(C)[C@@]4(F)[C@@H](O)C[C@]3(C)[C@]2(C(=O)CO)O1` (stereo not given in full), the values for the IC50 cytotoxicity (DAPI nuclear signal decrease) with DAPI (mean of runs), in the assay with DAPI (run 1) and in the assay with DAPI (run 2) were > 25 µM (inactive), greater than 25 µM and greater than 25 µM, respectively. In addition, the half-maximal inhibitory concentration (IC50) in the assay with TAG (mean of runs) was 13.9 µM; in the assay with TAG (run 1), 13 µM; in the assay on TAG (run 2), 14.7 µM.

With `CC(C)c1ccc(NC(=O)Nc2nc(C(N)C3CCCCC3)cs2)cc1` (stereo not given), the values for the IC50 cytotoxicity (DAPI nuclear signal decrease) in the assay with DAPI (mean of runs), with DAPI (run 1) and in the assay with DAPI (run 2) were 17.3 µM (inactive), 16 µM and 18.6 µM, respectively. Further, the IC50 is 8.38 µM in the assay on TAG (mean of runs), 8.24 µM in the assay with TAG (run 1) and 8.53 µM in the assay with TAG (run 2).

Turning to `COc1ccc(-c2csc(NC(=S)NC(=O)/C=C/c3ccco3)n2)cc1Br`, the values for the IC50 cytotoxicity (DAPI nuclear signal decrease) in the assay with DAPI (mean of runs), in the assay with DAPI (run 1) and with DAPI (run 2) were > 25 µM (inactive), greater than 25 µM and greater than 25 µM, respectively. For the same molecule, the IC50 is 8 µM with TAG (mean of runs), 5.89 µM with TAG (run 1) and 10.1 µM with TAG (run 2).

Regarding `CCCCCc1cc(=O)oc2c(C(CCN3CCCC3)c3cc(OC)c(OC)c(OC)c3)c(OC)cc(OC)c12` (stereo not given), the IC50 cytotoxicity (DAPI nuclear signal decrease) with DAPI (mean of runs) was 20.2 µM (inactive); in the assay with DAPI (run 1) it was 20.1 µM; with DAPI (run 2), 20.2 µM. For the same molecule, the 50% inhibitory concentration (IC50) in the assay on TAG (run 1) is greater than 25 µM; in the assay with TAG (run 2) it was 17.4 µM.

`COc1cc(-c2nnc3n2N=C(c2ccccc2)CS3)cc(OC)c1OC`: the IC50 cytotoxicity (DAPI nuclear signal decrease) in the assay on DAPI (mean of runs) was > 25 µM (inactive); in the assay with DAPI (run 1) it was greater than 25 µM; in the assay on DAPI (run 2) it was greater than 25 µM. For the same molecule, the 50% inhibitory concentration (IC50) in the assay on TAG (mean of runs) was 13.4 µM; in the assay with TAG (run 1) it was 14.9 µM; in the assay on TAG (run 2), 12 µM.

Consider `O=C(CSc1nc2ccc(Nc3nc(N4CCOCC4)nc(N4CCOCC4)n3)cc2s1)Nc1ccccc1Cl`, for which the values for the IC50 cytotoxicity (DAPI nuclear signal decrease) with DAPI (mean of runs), in the assay with DAPI (run 1) and with DAPI (run 2) were > 25 µM (inactive), greater than 25 µM and greater than 25 µM, respectively. Besides, the values for the IC50 in the assay on TAG (mean of runs), with TAG (run 1) and with TAG (run 2) were 8.88 µM, 7.69 µM and 10.1 µM, respectively.

For `COc1ccc(NC(=O)C2(C)Cc3c(-c4cccc(C(N)=O)c4)ccnc3O2)cn1` (stereo not given), the IC50 cytotoxicity (DAPI nuclear signal decrease) with DAPI (mean of runs) was > 25 µM (inactive); in the assay with DAPI (run 1), greater than 25 µM; with DAPI (run 2) it was greater than 25 µM. For the same molecule, the IC50 was 18.5 µM (inactive) in the assay on TAG (mean of runs), 18 µM in the assay with TAG (run 1) and 18.9 µM in the assay with TAG (run 2).

For `Brc1ccc(-c2csc(NNC3=NCCCCC3)n2)cc1`, the figures for the IC50 cytotoxicity (DAPI nuclear signal decrease) in the assay on DAPI (run 1) and in the assay on DAPI (run 2) were 21.6 µM and greater than 25 µM, respectively. For the same molecule, the IC50 is 1.85 µM in the assay with TAG (mean of runs), 1.55 µM with TAG (run 1) and 2.15 µM with TAG (run 2).

In the case of `COc1ccc2sc(-c3ccc(N(C)C)cc3)c(C#CCO)c2c1`, the IC50 cytotoxicity (DAPI nuclear signal decrease) was > 25 µM (inactive) in the assay with DAPI (mean of runs), greater than 25 µM with DAPI (run 1) and greater than 25 µM in the assay on DAPI (run 2). Also, the IC50 with TAG (mean of runs) was 6.43 µM; in the assay with TAG (run 1), 6.72 µM; in the assay on TAG (run 2), 6.13 µM.

As to `O=C(c1cc(-c2ccncc2)nc2c(Cl)cccc12)N1CCN(c2ccccc2F)CC1`, the IC50 cytotoxicity (DAPI nuclear signal decrease) is > 25 µM (inactive) with DAPI (mean of runs), greater than 25 µM in the assay on DAPI (run 1) and greater than 25 µM with DAPI (run 2). Further, the results for the concentration for half-maximal inhibition (IC50) with TAG (mean of runs), with TAG (run 1) and in the assay on TAG (run 2) were 5.67 µM, 6.89 µM and 4.44 µM, respectively.

As for `Cn1nnnc1Sc1ncnc2scc(-c3cccc(S(C)(=O)=O)c3)c12`, the IC50 cytotoxicity (DAPI nuclear signal decrease) in the assay on DAPI (mean of runs) was > 25 µM (inactive); with DAPI (run 1), greater than 25 µM; in the assay with DAPI (run 2), greater than 25 µM. The IC50 in the assay with TAG (mean of runs) is > 25 µM (inactive); with TAG (run 1), greater than 25 µM; with TAG (run 2), greater than 25 µM.

For the molecule `CCOC(=O)c1sc2nc(CSc3ccccc3)nc(NCCN(C)C)c2c1C`, the IC50 cytotoxicity (DAPI nuclear signal decrease) is > 25 µM (inactive) in the assay on DAPI (mean of runs), greater than 25 µM in the assay with DAPI (run 1) and greater than 25 µM in the assay on DAPI (run 2). Further, the half-inhibitory concentration (IC50) was 13.7 µM in the assay with TAG (mean of runs), 12.4 µM in the assay with TAG (run 1) and 14.9 µM in the assay with TAG (run 2).

Turning to `O=C(Nc1cc2c3c(c1)C1CCCC1CN3CC1CCCC21)c1ccc([N+](=O)[O-])cc1` (stereo not given), the IC50 cytotoxicity (DAPI nuclear signal decrease) in the assay on DAPI (mean of runs) was > 25 µM (inactive); in the assay on DAPI (run 1) it was greater than 25 µM; in the assay on DAPI (run 2), greater than 25 µM. Besides, the results for the IC50 in the assay with TAG (mean of runs), with TAG (run 1) and in the assay with TAG (run 2) were 12.3 µM, 11.3 µM and 13.2 µM, respectively.

As to `CS(=O)(=O)c1ccc(C(=O)OCC(=O)N2CCOCC2)cc1[N+](=O)[O-]`, the IC50 cytotoxicity (DAPI nuclear signal decrease) in the assay with DAPI (mean of runs) is > 25 µM (inactive); with DAPI (run 1) it was greater than 25 µM; in the assay with DAPI (run 2), greater than 25 µM. The results for the IC50 in the assay with TAG (mean of runs), in the assay with TAG (run 1) and in the assay on TAG (run 2) were > 25 µM (inactive), greater than 25 µM and greater than 25 µM, respectively.

For `CC(C)C(C)(C#N)NC(=O)CSc1nc2scc(-c3ccco3)c2c(=O)n1-c1ccccc1` (stereo not given), the IC50 cytotoxicity (DAPI nuclear signal decrease) is > 25 µM (inactive) with DAPI (mean of runs), greater than 25 µM with DAPI (run 1) and greater than 25 µM with DAPI (run 2). Moreover, the IC50 is 10.5 µM with TAG (mean of runs), 11.4 µM in the assay on TAG (run 1) and 9.69 µM with TAG (run 2).

Consider `c1ccc(-c2csc(NNC3=NCCCCC3)n2)cc1`, for which the IC50 cytotoxicity (DAPI nuclear signal decrease) with DAPI (run 1) and with DAPI (run 2) was greater than 25 µM throughout. In addition, the IC50 in the assay with TAG (mean of runs) was 3.65 µM; with TAG (run 1), 3.15 µM; in the assay on TAG (run 2) it was 4.14 µM.

Regarding `Cc1cc(C(=O)COC(=O)c2ccc([N+](=O)[O-])o2)c(C)n1CC1CCCO1` (stereo not given), the IC50 cytotoxicity (DAPI nuclear signal decrease) in the assay on DAPI (run 1) was 16.4 µM; with DAPI (run 2) it was greater than 25 µM. Moreover, the IC50 in the assay with TAG (mean of runs) is 19.2 µM (inactive); in the assay on TAG (run 1) it was 18.9 µM; with TAG (run 2), 19.4 µM.

Regarding `Cc1cc(N2CCN(Cc3cn(C)nc3-c3cccc(Cl)c3)CC2)cc(C)n1`, the IC50 cytotoxicity (DAPI nuclear signal decrease) is > 25 µM (inactive) with DAPI (mean of runs), greater than 25 µM with DAPI (run 1) and greater than 25 µM in the assay on DAPI (run 2). Further, the half-maximal inhibitory concentration (IC50) with TAG (run 1) is greater than 25 µM; with TAG (run 2), 22.5 µM.
